# Measurements taken from publication PMC7311426, “An amphipathic peptide with antibiotic activity against multidrug-resistant Gram-negative bacteria” (Nature Communications, 2020).
# Columns and labels:
# Experiment in all cases: microbe, parasite or virus in culture
# E. coli = system: E. coli
# How it was run: (§1)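 MICs were scored by eye after 18-20 h static incubation at 37 °C, with bacteria at 5 × 10^5 CFU mL^−1 in MHB. Peptides were serially diluted 2-fold over 12 points, top 128 or 64 μg mL^−1. CAMHB (CLSI) and 1% agarose-MHB variants were also run, at least six replicates.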
# K. pneumoniae = system: K. pneumoniae
# How it was run: as §1
# P. aeruginosa = system: P. aeruginosa
# How it was run: as §1
smiles,measurement,setting,value
C[C@H]1[C@H](NC(=O)/C(=N\OC(C)(C)C(=O)O)c2csc(N)n2)C(=O)N1S(=O)(=O)O [AZT],"MIC, broth microdilution",E. coli; E. coli AUD172 parent strain not exposed to drug,>32 µg/mL
same,"MIC, broth microdilution","E. coli; E. coli AUD172 spontaneous mutant, AA139 selection 4X, plate 2, colony 2, drug-free passage 1",">32 , >32 µg/mL"
same,"MIC, broth microdilution","E. coli; E. coli AUD172 spontaneous mutant, AA139 selection 4X, plate 2, colony 2, drug-free passage 5",">32 , >32 µg/mL"
same,"MIC, broth microdilution",K. pneumoniae; K. pneumoniae 3010 parent strain not exposed to drug,0.06 µg/mL
same,"MIC, broth microdilution",K. pneumoniae; K. pneumoniae ST258 parent strain not exposed to drug,>32 µg/mL
same,"MIC, broth microdilution","K. pneumoniae; K. pneumoniae ST258 spontaneous mutant, AA139 selection 4X, plate 1, colony 1, drug-free passage 1",">32 , >32 µg/mL"
same,"MIC, broth microdilution","K. pneumoniae; K. pneumoniae ST258 spontaneous mutant, AA139 selection 4X, plate 1, colony 1, drug-free passage 5",">32 , >32 µg/mL"
same,"MIC, broth microdilution",P. aeruginosa; P. aeruginosa ATCC 27853 parent strain not exposed to drug,4 µg/mL
same,"MIC, broth microdilution","P. aeruginosa; P. aeruginosa ATCC 27853 spontaneous mutant, AA139 selection 4X, plate 1, colony 1, drug-free passage 1","4, 4 µg/mL"
same,"MIC, broth microdilution","P. aeruginosa; P. aeruginosa ATCC 27853 spontaneous mutant, AA139 selection 4X, plate 1, colony 1, drug-free passage 5","4, 4 µg/mL"
same,"MIC, broth microdilution","P. aeruginosa; P. aeruginosa ATCC 27853 spontaneous mutant, AA139 selection 4X, plate 1, colony 2, drug-free passage 1",8 µg/mL
same,"MIC, broth microdilution","P. aeruginosa; P. aeruginosa ATCC 27853 spontaneous mutant, AA139 selection 4X, plate 1, colony 2, drug-free passage 5",4 µg/mL
same,"MIC, broth microdilution","P. aeruginosa; P. aeruginosa ATCC 27853 spontaneous mutant, AA139 selection 4X, plate 1, colony 3, drug-free passage 1",4 µg/mL
same,"MIC, broth microdilution","P. aeruginosa; P. aeruginosa ATCC 27853 spontaneous mutant, AA139 selection 4X, plate 1, colony 3, drug-free passage 5",8 µg/mL
same,"MIC, broth microdilution","P. aeruginosa; P. aeruginosa ATCC 27853 spontaneous mutant, AA139 selection 4X, plate 1, colony 4, drug-free passage 1",8 µg/mL
same,"MIC, broth microdilution","P. aeruginosa; P. aeruginosa ATCC 27853 spontaneous mutant, AA139 selection 4X, plate 1, colony 4, drug-free passage 5",4 µg/mL
same,"MIC, broth microdilution","P. aeruginosa; P. aeruginosa ATCC 27853 spontaneous mutant, AA139 selection 4X, plate 1, colony 5, drug-free passage 1",8 µg/mL
same,"MIC, broth microdilution","P. aeruginosa; P. aeruginosa ATCC 27853 spontaneous mutant, AA139 selection 4X, plate 1, colony 5, drug-free passage 5",4 µg/mL
same,"MIC, broth microdilution","P. aeruginosa; P. aeruginosa ATCC 27853 spontaneous mutant, AA139 selection 4X, plate 1, colony 6, drug-free passage 1",8 µg/mL
same,"MIC, broth microdilution","P. aeruginosa; P. aeruginosa ATCC 27853 spontaneous mutant, AA139 selection 4X, plate 1, colony 6, drug-free passage 5",4 µg/mL
same,"MIC, broth microdilution","P. aeruginosa; P. aeruginosa ATCC 27853 spontaneous mutant, AA139 selection 4X, plate 2, colony 1, drug-free passage 1","4, 4 µg/mL"
same,"MIC, broth microdilution","P. aeruginosa; P. aeruginosa ATCC 27853 spontaneous mutant, AA139 selection 4X, plate 2, colony 1, drug-free passage 5","4, 4 µg/mL"
same,"MIC, broth microdilution","P. aeruginosa; P. aeruginosa ATCC 27853 spontaneous mutant, AA139 selection 4X, plate 2, colony 2, drug-free passage 1","4, 4 µg/mL"
same,"MIC, broth microdilution","P. aeruginosa; P. aeruginosa ATCC 27853 spontaneous mutant, AA139 selection 4X, plate 2, colony 2, drug-free passage 5","4, 4 µg/mL"
same,"MIC, broth microdilution","P. aeruginosa; P. aeruginosa ATCC 27853 spontaneous mutant, AA139 selection 4X, plate 2, colony 3, drug-free passage 1","4, 4 µg/mL"
same,"MIC, broth microdilution","P. aeruginosa; P. aeruginosa ATCC 27853 spontaneous mutant, AA139 selection 4X, plate 2, colony 3, drug-free passage 5","4, 4 µg/mL"
same,"MIC, broth microdilution","P. aeruginosa; P. aeruginosa ATCC 27853 spontaneous mutant, AA139 selection 4X, plate 2, colony 4, drug-free passage 1","4, 4 µg/mL"
same,"MIC, broth microdilution","P. aeruginosa; P. aeruginosa ATCC 27853 spontaneous mutant, AA139 selection 4X, plate 2, colony 4, drug-free passage 5","4, 4 µg/mL"
same,"MIC, broth microdilution","P. aeruginosa; P. aeruginosa ATCC 27853 spontaneous mutant, AA139 selection 8X, plate 1, colony 1, drug-free passage 1",8 µg/mL
same,"MIC, broth microdilution","P. aeruginosa; P. aeruginosa ATCC 27853 spontaneous mutant, AA139 selection 8X, plate 1, colony 1, drug-free passage 5",4 µg/mL
same,"MIC, broth microdilution","P. aeruginosa; P. aeruginosa ATCC 27853 spontaneous mutant, AA139 selection 8X, plate 1, colony 2, drug-free passage 1","8, 8 µg/mL"
same,"MIC, broth microdilution","P. aeruginosa; P. aeruginosa ATCC 27853 spontaneous mutant, AA139 selection 8X, plate 1, colony 2, drug-free passage 5","8, 8 µg/mL"
same,"MIC, broth microdilution","P. aeruginosa; P. aeruginosa ATCC 27853 spontaneous mutant, AA139 selection 8X, plate 1, colony 3, drug-free passage 1","8, 8 µg/mL"
same,"MIC, broth microdilution","P. aeruginosa; P. aeruginosa ATCC 27853 spontaneous mutant, AA139 selection 8X, plate 1, colony 3, drug-free passage 5","8, 8 µg/mL"
same,"MIC, broth microdilution","P. aeruginosa; P. aeruginosa ATCC 27853 spontaneous mutant, AA139 selection 8X, plate 1, colony 4, drug-free passage 1","8, 8 µg/mL"
same,"MIC, broth microdilution","P. aeruginosa; P. aeruginosa ATCC 27853 spontaneous mutant, AA139 selection 8X, plate 1, colony 4, drug-free passage 5","8, 8 µg/mL"
same,"MIC, broth microdilution","P. aeruginosa; P. aeruginosa ATCC 27853 spontaneous mutant, AA139 selection 8X, plate 1, colony 5, drug-free passage 1","8, 8 µg/mL"
same,"MIC, broth microdilution","P. aeruginosa; P. aeruginosa ATCC 27853 spontaneous mutant, AA139 selection 8X, plate 1, colony 5, drug-free passage 5","8, 8 µg/mL"
same,"MIC, broth microdilution",P. aeruginosa; P. aeruginosa UNT 138-1 parent strain not exposed to drug,4 µg/mL
same,"MIC, broth microdilution","P. aeruginosa; P. aeruginosa UNT 138-1 spontaneous mutant, AA139 selection 4X, plate 1, colony 1, drug-free passage 1",4 µg/mL
same,"MIC, broth microdilution","P. aeruginosa; P. aeruginosa UNT 138-1 spontaneous mutant, AA139 selection 4X, plate 1, colony 1, drug-free passage 5",8 µg/mL
same,"MIC, broth microdilution","P. aeruginosa; P. aeruginosa UNT 138-1 spontaneous mutant, AA139 selection 4X, plate 1, colony 2, drug-free passage 1","4, 4 µg/mL"
same,"MIC, broth microdilution","P. aeruginosa; P. aeruginosa UNT 138-1 spontaneous mutant, AA139 selection 4X, plate 1, colony 2, drug-free passage 5","4, 4 µg/mL"
same,"MIC, broth microdilution","P. aeruginosa; P. aeruginosa UNT 138-1 spontaneous mutant, AA139 selection 4X, plate 1, colony 3, drug-free passage 1",4 µg/mL
same,"MIC, broth microdilution","P. aeruginosa; P. aeruginosa UNT 138-1 spontaneous mutant, AA139 selection 4X, plate 1, colony 3, drug-free passage 5",8 µg/mL
same,"MIC, broth microdilution","P. aeruginosa; P. aeruginosa UNT 138-1 spontaneous mutant, AA139 selection 4X, plate 1, colony 4, drug-free passage 1","8, 8 µg/mL"
same,"MIC, broth microdilution","P. aeruginosa; P. aeruginosa UNT 138-1 spontaneous mutant, AA139 selection 4X, plate 1, colony 4, drug-free passage 5","8, 8 µg/mL"
same,"MIC, broth microdilution","P. aeruginosa; P. aeruginosa UNT 138-1 spontaneous mutant, AA139 selection 4X, plate 1, colony 5, drug-free passage 1","4, 4 µg/mL"
same,"MIC, broth microdilution","P. aeruginosa; P. aeruginosa UNT 138-1 spontaneous mutant, AA139 selection 4X, plate 1, colony 5, drug-free passage 5","4, 4 µg/mL"
same,"MIC, broth microdilution","P. aeruginosa; P. aeruginosa UNT 138-1 spontaneous mutant, AA139 selection 4X, plate 1, colony 6, drug-free passage 1","4, 4 µg/mL"
same,"MIC, broth microdilution","P. aeruginosa; P. aeruginosa UNT 138-1 spontaneous mutant, AA139 selection 4X, plate 1, colony 6, drug-free passage 5","4, 4 µg/mL"
same,"MIC, broth microdilution","P. aeruginosa; P. aeruginosa UNT 138-1 spontaneous mutant, AA139 selection 4X, plate 1, colony 7, drug-free passage 1","4, 4 µg/mL"
same,"MIC, broth microdilution","P. aeruginosa; P. aeruginosa UNT 138-1 spontaneous mutant, AA139 selection 4X, plate 1, colony 7, drug-free passage 5","4, 4 µg/mL"
same,"MIC, broth microdilution","P. aeruginosa; P. aeruginosa UNT 138-1 spontaneous mutant, AA139 selection 4X, plate 2, colony 1, drug-free passage 1","8, 8 µg/mL"
same,"MIC, broth microdilution","P. aeruginosa; P. aeruginosa UNT 138-1 spontaneous mutant, AA139 selection 4X, plate 2, colony 1, drug-free passage 5","8, 8 µg/mL"
same,"MIC, broth microdilution","P. aeruginosa; P. aeruginosa UNT 138-1 spontaneous mutant, AA139 selection 4X, plate 2, colony 2, drug-free passage 1","4, 4 µg/mL"
same,"MIC, broth microdilution","P. aeruginosa; P. aeruginosa UNT 138-1 spontaneous mutant, AA139 selection 4X, plate 2, colony 2, drug-free passage 5","4, 4 µg/mL"
same,"MIC, broth microdilution","P. aeruginosa; P. aeruginosa UNT 138-1 spontaneous mutant, AA139 selection 4X, plate 2, colony 3, drug-free passage 1","4, 4 µg/mL"
same,"MIC, broth microdilution","P. aeruginosa; P. aeruginosa UNT 138-1 spontaneous mutant, AA139 selection 4X, plate 2, colony 3, drug-free passage 5","4, 4 µg/mL"
same,"MIC, broth microdilution","P. aeruginosa; P. aeruginosa UNT 138-1 spontaneous mutant, AA139 selection 4X, plate 2, colony 4, drug-free passage 1","4, 4 µg/mL"
same,"MIC, broth microdilution","P. aeruginosa; P. aeruginosa UNT 138-1 spontaneous mutant, AA139 selection 4X, plate 2, colony 4, drug-free passage 5","4, 4 µg/mL"
same,"MIC, broth microdilution","P. aeruginosa; P. aeruginosa UNT 138-1 spontaneous mutant, AA139 selection 4X, plate 2, colony 5, drug-free passage 1","4, 4 µg/mL"
same,"MIC, broth microdilution","P. aeruginosa; P. aeruginosa UNT 138-1 spontaneous mutant, AA139 selection 4X, plate 2, colony 5, drug-free passage 5","4, 4 µg/mL"
same,"MIC, broth microdilution","P. aeruginosa; P. aeruginosa UNT 138-1 spontaneous mutant, AA139 selection 4X, plate 2, colony 6, drug-free passage 1","4, 4 µg/mL"
same,"MIC, broth microdilution","P. aeruginosa; P. aeruginosa UNT 138-1 spontaneous mutant, AA139 selection 4X, plate 2, colony 6, drug-free passage 5","4, 4 µg/mL"
same,"MIC, broth microdilution","P. aeruginosa; P. aeruginosa UNT 138-1 spontaneous mutant, AA139 selection 4X, plate 2, colony 7, drug-free passage 1","4, 4 µg/mL"
same,"MIC, broth microdilution","P. aeruginosa; P. aeruginosa UNT 138-1 spontaneous mutant, AA139 selection 4X, plate 2, colony 7, drug-free passage 5","4, 4 µg/mL"
same,"MIC, broth microdilution","P. aeruginosa; P. aeruginosa UNT 138-1 spontaneous mutant, AA139 selection 8X, plate 1, colony 1, drug-free passage 1","4, 4 µg/mL"
same,"MIC, broth microdilution","P. aeruginosa; P. aeruginosa UNT 138-1 spontaneous mutant, AA139 selection 8X, plate 1, colony 1, drug-free passage 5","4, 4 µg/mL"
same,"MIC, broth microdilution","P. aeruginosa; P. aeruginosa UNT 138-1 spontaneous mutant, AA139 selection 8X, plate 1, colony 2, drug-free passage 1","4, 4 µg/mL"
same,"MIC, broth microdilution","P. aeruginosa; P. aeruginosa UNT 138-1 spontaneous mutant, AA139 selection 8X, plate 1, colony 2, drug-free passage 5","4, 4 µg/mL"
same,"MIC, broth microdilution","P. aeruginosa; P. aeruginosa UNT 138-1 spontaneous mutant, AA139 selection 8X, plate 1, colony 3, drug-free passage 1","4, 4 µg/mL"
same,"MIC, broth microdilution","P. aeruginosa; P. aeruginosa UNT 138-1 spontaneous mutant, AA139 selection 8X, plate 1, colony 3, drug-free passage 5","4, 4 µg/mL"
same,"MIC, broth microdilution","P. aeruginosa; P. aeruginosa UNT 138-1 spontaneous mutant, AA139 selection 8X, plate 1, colony 4, drug-free passage 1","4, 4 µg/mL"
same,"MIC, broth microdilution","P. aeruginosa; P. aeruginosa UNT 138-1 spontaneous mutant, AA139 selection 8X, plate 1, colony 4, drug-free passage 5","4, 4 µg/mL"
same,"MIC, broth microdilution","P. aeruginosa; P. aeruginosa UNT 138-1 spontaneous mutant, AA139 selection 8X, plate 1, colony 5, drug-free passage 1",4 µg/mL
same,"MIC, broth microdilution","P. aeruginosa; P. aeruginosa UNT 138-1 spontaneous mutant, AA139 selection 8X, plate 1, colony 5, drug-free passage 5",8 µg/mL
same,"MIC, broth microdilution","P. aeruginosa; P. aeruginosa UNT 138-1 spontaneous mutant, AA139 selection 8X, plate 2, colony 1, drug-free passage 1",4 µg/mL
same,"MIC, broth microdilution","P. aeruginosa; P. aeruginosa UNT 138-1 spontaneous mutant, AA139 selection 8X, plate 2, colony 1, drug-free passage 5",8 µg/mL
